Measured values published in US12365699B2, “Elastase inhibitor prodrug and use thereof” (SUZHOU ARK BIOPHARMACEUTICAL CO., LTD., priority 2020, dated 2025).

Legend:
[1] = Stability test of prodrug in different solvents (vehicle water with 5% ethanol, anhydrous ethanol, acetonitrile) at room temperature; format: physicochemical
Experimental: (§1) Two simulated lung fluids including Gamble's buffer and ALF buffer were prepared according to literature reports (Marques M. R. C., Loebenberg R., Almukainzi M., Simulated Biological Fluids with Possible Application in Dissolution Testing, Dissolution Technologies, 2011, 18(3): 15-28) to test the prodrug stability in simulated lung fluids. In addition, according to the need for animal experimental preparations and sample analysis, three different solvents were prepared: vehicle for animal experiments (water with 5% ethanol), anhydrous ethanol and acetonitrile. They were used to test the stability of pre-dose formulations in animals and collected samples during analysis. Dissolve example 1 compound (2 mg) and example 2 compound (2 mg) in 1 mL of the above-filtered buffer or solvent, respectively. Observe whether there is undissolved particulate matter after vortex shaking, and then filter the suspension or solution to remove undissolved compounds and immediately take 100 μL as the sample at the start of the stability test. Then the ratio of prodrug and hydrolyzate (namely compound 52 in WO 2018/175173 A1, used as a control) was analyzed by HPLC. Afterwards the samples in the two simulated lung fluids were placed on an orbital shaker at 37° C. and shaken at 200 rpm, and sampling at 0.5 hours, 1 hour, 2 hours, 4 hours and 20 hours, and the ratio of prodrug and hydrolyzate were analyzed by HPLC immediately. Let the samples dissolved in the three solvents stand at room temperature, sampling at 1 hour, 3 hours, and 18 hours, and the ratio of prodrug and hydrolyzate were immediately detected.

[2] = Stability test of prodrug in simulated lung fluids (Gamble's buffer, ALF buffer) at 37° C., HPLC ratio of prodrug and hydrolyzate; format: physicochemical; details: for hydrolysis: linear hydrolysis; for ratio of the hydrolysis: within half an hour, ratio maintained for the next 20 hours
Experimental: as §1

[3] = In vivo pharmacokinetics in mice, pulmonary drug concentration after intratracheal administration; design: species or system male C57BL/6 mice; details: intratracheal 2 mg/kg
Source text: Compare the pharmacokinetics of the final prodrug compound of Example 1 and the control example (compound 52 in WO 2018/175173 A1) in mice:
7-9-week-old male C57BL/6 mice were randomly divided into two groups after the adaptation phase: the elastase inhibitor control group and the Example 1 group.

[4] = male, C57BL/6, mouse, lung, other: intratracheal, parent compound dosed, read-out: drug concentration in the lungs

hydrolysis in acetonitrile ([1]; up to 18 hours)	hydrolysis rate ([1]; anhydrous ethanol)	hydrolysis rate ([1]; resolvent)	hydrolysis ([2]; acidic ALF buffer (pH 4.5), in about 15 hours)	hydrolysis ([2]; neutral Gamble's buffer (pH 7.4), at 2.5 hours)	hydrolysis in anhydrous ethanol ([1]; anhydrous ethanol, up to 18 hours)	hydrolyzed in the resolvent ([1]; resolvent, after 18 hours)	hydrolyzed in the resolvent ([1]; resolvent, in 3 hours)	concentration at 6 h [3, 4] [ng/g]	concentration at 12 h ([3]; male, C57BL/6, mouse, lung, other: intratracheal, parent compound dosed, at 12 hours, read-out: drug concentration in the lungs) [ng/g]	ratio of the hydrolysis ([2]; acidic ALF buffer (pH 4.5)) [%]	ratio of the hydrolysis ([2]; neutral Gamble's buffer (pH 7.4)) [%]	drug concentration in the lungs ([3]; parent compound dosed, at 12 hours)	Compound	conversion of prodrug in mice [3]	effect on lung concentration and residence time of the control example compared to direct administration of the control example [3]
did not hydrolyze	about 0.5 % per hour	about 1 % hydrolysis per hour	about 50%	about 50%	–	–	–	–	–	–	–	–	CC(C)[C@H](NC(=O)c1ccc(C(=O)NCC(=O)O)cc1)C(=O)N1CCC[C@H]1C(=O)N[C@@H](C(C)C)[B-]12OC(=O)C[N+]1(C)CC(=O)O2 (stereo partly drawn) [Example 2, N-(4-(((S)-3-methyl-1-((S)-2-(((R)-2-methyl-1-(6-methyl-4,8-dioxo-1,3,6,2-dioxazaborocan-2-yl)propyl)carbamoyl)pyrrolidin-1-yl)-1-oxobutan-2-yl)carbamoyl)benzoyl)glycine]	–	–
hardly hydrolyzed	–	–	–	–	hardly hydrolyzed	about 20%	about 18%	1070	120	40	25	–	CC(C)[C@H](NC(=O)[C@@H]1CCCN1C(=O)[C@@H](NC(=O)c1ccc(C(=O)NCC(=O)O)cc1)C(C)C)B1O[C@@H]2C[C@@H]3C[C@@H](C3(C)C)[C@]2(C)O1 [Example 1, N-(4-(((S)-3-methyl-1-((S)-2-(((R)-2-methyl-1-((3aS,4S,6S,7aR)-3a,5,5-trimethylhexahydro-4,6-methanobenzo[d][1,3,2]dioxaborol-2-yl)propyl)carbamoyl)pyrrolidin-1-yl)-1-oxobutan-2-yl)carbamoyl)benzoyl)glycine]	quickly converted into the control example	greatly increases the concentration and residence time of the control example in the lungs
–	–	–	–	–	–	–	–	153	–	–	–	completely cleared	CC(C)[C@H](NC(=O)[C@@H]1CCCN1C(=O)[C@@H](NC(=O)c1ccc(C(=O)NCC(=O)O)cc1)C(C)C)B(O)O [control example, N-(4-(((S)-1-((S)-2-(((R)-1-borono-2-methylpropyl)carbamoyl)pyrrolidin-1-yl)-3-methyl-1-oxobutan-2-yl)carbamoyl)benzoyl)glycine, reference compound]	–	–
